Assay results from patent publication US10927141B2 (priority 2018, dated 2021).
“And” between values parts separate entries of the source, which are not always exact repeats. Equal entries are not always repeated. Where two headings read alike, the source gives them in different places.

Columns and labels:
[1] = format: physicochemical
[2] = format: physicochemical; conditions: 1 w
Experimental: For each salt, approximately 5 mg compound was added into an 8 mL glass vial with a multi-hole aluminum foil cap, and kept at 60° C., 40° C./75% RH for 1 week. […] Appearance by visual observation were recorded followed by purity assessment and XPRD data collection on the residual solids.

| SMILES | Final purity ([1]; 1.2 million lux-hrs) | XRPD patterns ([1]; 1.2 million lux-hrs) | Final purity ([1]; Dark control) | XRPD patterns ([1]; Dark control) | Final purity ([2]; 40° C./75% RH) | XRPD patterns ([2]; 40° C./75% RH) | Final purity ([2]; 60° C.) | XRPD patterns ([2]; 60° C.) | XRPD pattern ([1]; 1.2 million lux-hrs) | XRPD pattern ([1]; Dark control) | XRPD pattern ([2]; 40° C./75% RH) | XRPD pattern ([2]; 60° C.) |
| --- | --- | --- | --- | --- | --- | --- | --- | --- | --- | --- | --- | --- |
| COCC1(O)CCC2(C)C(CCC3C2CCC2(C)C(C(=O)Cn4ccnc4)CCC32)C1.O=C(O)c1ccc2ccccc2c1O (stereo not drawn) [1-hydroxy-2-napthoate (Form A)] | 92.64 | Form A | 91.96 | Form A | 92.64 | Form A | 88.91 | Form A |  |  |  |  |
| COC[C@@]1(O)CC[C@@]2(C)[C@@H](CC[C@@H]3[C@@H]2CC[C@]2(C)[C@@H](C(=O)Cn4ccnc4)CC[C@@H]32)C1.O=C1O[C@H]([C@@H](O)CO)C(O)=C1O [Ascorbate (Form A)] | 96.8 | Form A | 96.8 | Form A | 96.4 | Form A | 95.7 | Form A |  |  |  |  |
| COC[C@@]1(O)CC[C@@]2(C)[C@@H](CC[C@@H]3[C@@H]2CC[C@]2(C)[C@@H](C(=O)Cn4ccnc4)CC[C@@H]32)C1.O=S(=O)(O)c1ccccc1 [Besylate (Form A)] | 98.7 | Form A | 98.4 | Form A | 98.3 | Form A | 98.3 | Form A |  |  |  |  |
| COC[C@@]1(O)CC[C@@]2(C)[C@@H](CC[C@@H]3[C@@H]2CC[C@]2(C)[C@@H](C(=O)Cn4ccnc4)CC[C@@H]32)C1 [Compound 1, 3α-Hydroxy-3β-methoxymethyl-21-(1′-imidazolyl)-5α-pregnan-20-one] | 97.9 and 99.2 and 97.92 | Pattern A | 98.3 and 99.1 | Pattern A | 98.2 and 99.1 and 98.23 | Pattern A | 98.2 and 99.3 and 98.15 | Pattern A | Pattern A | Pattern A | Pattern A | Pattern A |
| COCC1(O)CCC2(C)C(CCC3C2CCC2(C)C(C(=O)Cn4ccnc4)CCC32)C1.O=C(O)C(Cl)Cl (stereo not drawn) [Dichloroacetate (Form A)] | 96.4 | Form A | 97.3 | Form A | 98.0 | Form A | 96.3 | Form A |  |  |  |  |
| CCS(=O)(=O)O.COCC1(O)CCC2(C)C(CCC3C2CCC2(C)C(C(=O)Cn4ccnc4)CCC32)C1 (stereo not drawn) [Ethanesulfonate (Form A)] | 97.7 | Form A | 97.4 | Form A | 98.0 | Form A | 98.2 | Form A |  |  |  |  |
| COCC1(O)CCC2(C)C(CCC3C2CCC2(C)C(C(=O)Cn4ccnc4)CCC32)C1.O=C(O)c1cc(O)ccc1O (stereo not drawn) [Gentisate salt (Form A)] | 96.0 | Form A | 97.6 | Form A | 97.6 | Form A | 97.0 | Form A |  |  |  |  |
| COCC1(O)CCC2(C)C(CCC3C2CCC2(C)C(C(=O)Cn4ccnc4)CCC32)C1.O=CC(O)C(O)C(O)C(O)C(=O)O (stereo not drawn) [Glucuronate (Form A)] | 97.5 | Form A | 97.5 | Form A | 98.0 | Form A | 96.7 | Form A |  |  |  |  |
| COC[C@@]1(O)CC[C@@]2(C)[C@@H](CC[C@@H]3[C@@H]2CC[C@]2(C)[C@@H](C(=O)Cn4ccnc4)CC[C@@H]32)C1.Cl [Hydrochloride (Form A)] | 99.5 | Form A | 99.5 | Form A | 99.4 | Form A | 99.5 | Form A |  |  |  |  |
| COCC1(O)CCC2(C)C(CCC3C2CCC2(C)C(C(=O)Cn4ccnc4)CCC32)C1.Cl (stereo not drawn) [Hydrochloride (Form B)] | 98.2 | Form B | 98.59 | Form B | 100.0 |  | 100.0 | Form B |  |  |  |  |
| COCC1(O)CCC2(C)C(CCC3C2CCC2(C)C(C(=O)Cn4ccnc4)CCC32)C1.Cl (stereo not drawn) [Hydrochloride (Form C)] | 100.0 | Form C | 99.2 | Form C | 100.0 | Form C | 98.6 | Form C |  |  |  |  |
| COCC1(O)CCC2(C)C(CCC3C2CCC2(C)C(C(=O)Cn4ccnc4)CCC32)C1.O=S(=O)(O)CCO (stereo not drawn) [Isethionate (Form A)] | 98.9 | Form A | 98.8 | Form A | 98.5 | Form A | 98.7 | Form A |  |  |  |  |
| COCC1(O)CCC2(C)C(CCC3C2CCC2(C)C(C(=O)Cn4ccnc4)CCC32)C1.O=C(O)C(O)C(O)C(=O)O (stereo not drawn) [L(+)-Tartrate (Form A)] | 99.4 | Form A | 99.2 | Form A | 99.3 | Form A | 99.3 | Form A |  |  |  |  |
| COC[C@@]1(O)CC[C@@]2(C)[C@@H](CC[C@@H]3[C@@H]2CC[C@]2(C)[C@@H](C(=O)Cn4ccnc4)CC[C@@H]32)C1.O=C(O)C(O)C(O)C(=O)O [L(+)-Tartrate (Form B)] | 99.3 | Form B | 99.2 | Form B | 99.2 | Form B | 99.2 | Form B |  |  |  |  |
| COCC1(O)CCC2(C)C(CCC3C2CCC2(C)C(C(=O)Cn4ccnc4)CCC32)C1.O=C(O)CC(O)C(=O)O [L-Malate (Form A)] | 99.3 | Form A | 99.3 | Form A | 99.2 | Form A | 99.6 | Form A |  |  |  |  |
| COC[C@@]1(O)CC[C@@]2(C)[C@@H](CC[C@@H]3[C@@H]2CC[C@]2(C)[C@@H](C(=O)Cn4ccnc4)CC[C@@H]32)C1.O=C(O)C[C@H](O)C(=O)O [L-Malate (Form B)] | 97.6 | Form B | 97.5 | Form B | 98.5 |  | 97.8 | Form B |  |  |  |  |
| COC[C@@]1(O)CC[C@@]2(C)[C@@H](CC[C@@H]3[C@@H]2CC[C@]2(C)[C@@H](C(=O)Cn4ccnc4)CC[C@@H]32)C1.O=C(O)CC(=O)O [Malonate (Form A)] | 98.2 | Form A | 99.0 | Form A | 98.5 | Form A | 97.0 | Form A |  |  |  |  |
